Measured values from patent US20160038454A1, “INTRAVENOUS FORMULATIONS OF […] AS IMMUNOMODULATORS AND […] AGENTS” (priority 2013, published 2016).
Where two headings read alike, the source gives them in different places.

Experiments:
[1] = system: human T cell lymphoma (Jurkat) cells; assay: in vitro; format: cell-based
Description: (§1) Test compounds may be dissolved in DMSO at a concentration of 20 mM. Further dilutions may be done in RPMI1640 medium (GIBCO, Rockville, Md.) supplemented with 10% Fetal Calf Serum (HyClone Laboratories, Logan, Utah).
(§2) Cytotoxicity of the compounds is determined in a standard MTT assay using Cell Proliferation Kit I (#1 465 007, Roche Diagnostics, Mannheim, Germany). Briefly, human T cell lymphoma (Jurkat) cells (4×10^5 per well) are cultured for 24 h, in 96-well tissue culture plates, in the presence of serial three-fold dilutions of test compounds or medium containing the same concentration of DMSO as in the test samples at each dilution point. The cultures are then supplemented with 10 μl/well MTT reagent for 4 h and then with 0.1 ml/well solubilizing reagent for an additional 16 h. Optical density at 570 nm (OD570) is measured on a ThermoScan microplate reader (Molecular Devices, Menlo Park, Calif.).

[2] = in vitro; format: cell-based, human; settings: human; Jurkat cells; test compounds incubated in serum for 24 hrs; read-out: Viability/Cytotoxicity MTT (ED50)
Description: as §1, §2

[3] = system: IL-2 production by Jurkat cells; assay: cells; format: cell-based, human; settings: for IC50: read-out: Immunosuppression IL-2 (IC50)
Description: Test samples can be diluted to 1 mM in complete tissue culture medium. Aliquots are placed in microculture plates coated with anti-CD3 antibody (used to stimulate the production of IL-2 by Jurkat cells), and serial dilutions are prepared so that the final concentration encompass the range of 0.001 to 10,000 nM in log increments. Cells from an exponentially expanding culture of Jurkat human T cell line (#TIB-152 obtained from American Type Culture Collection, Manassas, Va.) are harvested, washed once by centrifugation, re-suspended in complete tissue culture medium, and diluted to a concentration of 2×10^6 cells/ml. A volume of 50 μl of Jurkat cells (1×10^5 cells) is added to wells containing 100 μl of the diluted compounds, 50 μl of PMA (10 ng/ml) is added to each well, and the plates are incubated at 37° C. in a 5% CO2 incubator. After 24 hours, the plates are centrifuged to pellet the cells, 150 μl of supernatant is removed from each well, and the samples are stored at −20° C. The stored supernatants are analyzed for human IL-2 concentration using the Luminex 100 (Luminex Corporation, Austin, Tex.), Luminex microspheres coupled with anti-IL-2 capture antibody, and fluorochrome-coupled anti-IL-2 detection antibody. The data are expressed as pg/ml of IL-2.

[4] = system: patients with AML; settings: given intravenously; Xia Zhi Lin and Zhen You Lan 2008; cited from earlier work
[5] = system: human T cell lymphoma (Jurkat) cells; settings: cited from earlier work
[6] = system: IL-2 production by Jurkat cells; settings: cited from earlier work
[7] = system: rat model of PD; settings: 0.5-1 μg/kg; Cheng et al., 2002; cited from earlier work
[8] = system: primary cultured rat mesencephalic neurons; settings: Li et al., 2003; cited from earlier work
[9] = system: primary mesencephalic neuron/glia mixed culture; settings: Li et al., 2004; cited from earlier work
[10] = TK: plasma triptolide levels, Calvert study (emulsion); format: in vivo, rodents; settings: for Plasma Triptolide Concentration: 0.15 mg/kg (emulsion)
Description: Triptolide prodrugs are generally believed to be safer than triptolide. […] Triptolide prodrugs as an emulsion formulation are believed to have a toxicokinetic profile characterized by a flat AUC with a minimized Cmax. [In conjunction, it was postulated that a sustained inhibition of RNA polymerase is needed for optimum efficacy which in turn requires a pharmcokinetic profile of constant exposure to drug]. […] The no effect dose (“NOAEL”) of PG796(MRx102) again exceeded 1.5 mg/kg/day intravenously for seven days in rodents confirming the initial results. It is interesting to ask why a prodrug of triptolide would be safer than the natural product itself; while not wishing to be bound by theory, perhaps the answer lies in the pharmacokinetic profile of triptolide administered either directly or released from its carrier, PG796(MRx102). […] It also remained above the therapeutic levels (shown as a thick line without symbols). The difference in the Cmax/AUC profile of PG796(MRx102) vs. triptolide is believed to be due to the physiochemical properties of the lipid prodrug/emulsion formulation combination. In general, triptolide prodrugs having a cLogP greater than 0.5 are more lipid-soluble than water soluble and are expected to take longer to convert to the drug form; such characteristics may yield a flatter conversion profile and less of a drug-release Cmax spike.
TK comparison of triptolide levels in Calvert and SRI studies—Males and Females

[11] = system: PC12 cells; settings: cited from earlier work
[12] = target: T1, human XPB (also known as ERCC3) (Homo sapiens, UniProt P19447); settings: Titov et al. 2011; cited from earlier work
T1 sequence (P19447 1-782): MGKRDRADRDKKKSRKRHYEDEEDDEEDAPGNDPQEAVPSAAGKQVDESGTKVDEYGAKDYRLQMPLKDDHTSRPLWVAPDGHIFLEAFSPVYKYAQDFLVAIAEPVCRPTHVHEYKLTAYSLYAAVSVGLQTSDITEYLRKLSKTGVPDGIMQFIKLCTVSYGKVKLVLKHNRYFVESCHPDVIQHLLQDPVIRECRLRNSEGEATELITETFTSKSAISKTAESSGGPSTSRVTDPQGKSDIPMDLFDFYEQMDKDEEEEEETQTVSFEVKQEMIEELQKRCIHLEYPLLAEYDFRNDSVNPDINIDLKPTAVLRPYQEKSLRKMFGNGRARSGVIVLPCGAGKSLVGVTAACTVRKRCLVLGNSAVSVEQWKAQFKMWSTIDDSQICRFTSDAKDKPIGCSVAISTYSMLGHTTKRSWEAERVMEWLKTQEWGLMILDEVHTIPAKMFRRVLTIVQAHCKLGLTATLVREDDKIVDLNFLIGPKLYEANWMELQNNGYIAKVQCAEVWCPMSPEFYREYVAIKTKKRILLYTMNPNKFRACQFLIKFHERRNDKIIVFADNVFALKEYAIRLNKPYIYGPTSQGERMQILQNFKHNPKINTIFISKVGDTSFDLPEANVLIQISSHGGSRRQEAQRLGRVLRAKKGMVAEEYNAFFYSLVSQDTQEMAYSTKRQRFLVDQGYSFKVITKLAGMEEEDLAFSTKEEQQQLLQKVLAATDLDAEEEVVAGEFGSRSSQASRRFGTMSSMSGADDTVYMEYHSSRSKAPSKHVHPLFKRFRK

[13] = system: lipopolysaccharide (LPS)-activated microglial activity; settings: Zhou et al., 2003; cited from earlier work
[14] = system: bleomycin-induced PF; settings: G. Krishna et al., 2001; cited from earlier work
[15] = Conversion to triptolide using human serum; format: in vitro ADME
Description: (Xia Zhi Lin and Zhen You Lan, Haematologica, 93:14 (2008)).

[16] = incubated in human serum compared with mouse serum
[17] = FIG. 1, triptolide provided alone

With `CC(C)[C@]12O[C@H]1[C@@H]1O[C@]13[C@@]1(OC(=O)O[C@H]21)[C@H](Cl)C[C@H]1C2=C(CC[C@@]13C)C(=O)OC2` [PG762] the “cytotoxic activity in MTT assay (in words)” value ([1]; Jurkat cells, comparison with triptolide or PG490-88) was “comparable potency”, the EC50 at 24 h [2] was 60 nM and the IC50 ([3]; Homo sapiens, Jurkat, 24 h) was 9 nM.
In the case of triptolide 14-succinate [PG490-88], the “activity in MTT assay after incubation in human serum vs mouse serum” value [1, 16] is listed as “much less active”, the “clinical activity in patients with AML” value [4] is listed as “promising activity” and the “activity in IL-2 inhibition assay after incubation in human serum vs mouse serum” value [3, 16] is listed as “much less active”.
In the case of `CC(C)[C@]12O[C@H]1[C@@H]1O[C@]13[C@]1(O[C@H]1C[C@H]1C4=C(CC[C@@]13C)C(=O)OC4)[C@H]2F` [PG763, 14-deoxy-14α-fluoro triptolide], the “cytotoxicity in Jurkat cells (as reported in U.S. application 60/449,976)” value [5] is given as “cytotoxicity in human T cell lymphoma (Jurkat) cells” and the “inhibition of IL-2 (as reported in U.S. application 60/449,976)” value [6] is given as “inhibition of IL-2”.
In the case of `CC(C)[C@]1(O)[C@H](Cl)[C@@H]2O[C@]23[C@]2(O[C@H]2C[C@H]2C4=C(CC[C@@]23C)C(=O)OC4)[C@@H]1O` [Tripchlorolide], the “recovery of rats undergoing neurosurgery” value [7] is listed as “improves recovery” and the “protection from neurotoxic lesion induced by 1-methyl-4-phenylpyridinium ion” value [8] is listed as “protects dopaminergic neurons”.
In the case of triptolide [PG490], the “LPS-induced decrease in 3H-dopamine uptake and loss of tyrosine hydroxylase-positive neurons” value [9] is listed as “attenuates”, the “Plasma Triptolide Concentration” value ([10]; females, 0 hrs) is listed as 0 ng/mL and the “Plasma Triptolide Concentration” value ([10]; females, 0.25 hrs) is listed as 74.6 ng/mL. The “Plasma Triptolide Concentration” value ([10]; females, 0.5 hrs) was 18.4 ng/mL, the “Plasma Triptolide Concentration” value ([10]; females, 1 hrs) was 13.2 ng/mL and the “Plasma Triptolide Concentration” value ([10]; females, 2 hrs) was 0 ng/mL. For the same compound, the “Plasma Triptolide Concentration” value ([10]; females, 24 hrs) was 0 ng/mL, the “Plasma Triptolide Concentration” value ([10]; males, 0 hrs) was 0 ng/mL and the “Plasma Triptolide Concentration” value ([10]; males, 0.25 hrs) was 59.0 ng/mL. The “Plasma Triptolide Concentration” value ([10]; males, 0.5 hrs) was 14.9 ng/mL, the “Plasma Triptolide Concentration” value ([10]; males, 1 hrs) was 3.6 ng/mL and the “Plasma Triptolide Concentration” value ([10]; males, 2 hrs) was 0 ng/mL. The “Plasma Triptolide Concentration” value ([10]; males, 24 hrs) was 0 ng/mL, the “triptolide Cmax (in words)” value [10, 17] was “very high Cmax” and the “triptolide in circulation by two hours post-dose” value [10, 17] was “none remained in circulation”. For the same compound, the β-amyloid-induced apoptosis [11] was “markedly inhibit”, the “DNA-dependent ATPase activity of XPB” value [12] was “inhibit” and the “binding to human XPB” value [12] was “covalently bind”. The “LPS-activated microglial activity (nitrite accumulation, TNF-α and IL-1β release)” value [13] was “powerful inhibitory influence” and the IC50 ([3]; Jurkat cells, test compounds incubated in serum for 24 hrs) was 4 nM.
For 14-succinimide ester of triptolide, the “bleomycin-induced PF” value [14] is listed as “block bleomycin-induced PF”.
For `CC(C)[C@]12O[C@H]1[C@@H]1O[C@]13[C@]1(O[C@H]1C[C@H]1C4=C(CC[C@@]13C)C(=O)OC4)[C@@H]2OC(=O)CCC(=O)[O-].[Na+]` [PG490-88Na], the “conversion to triptolide in human serum” value [15] was “incompletely converted”.
